Source: EP2633864A1, “Clip inhibitors and methods of modulating immune function” (The Regents of the University of Colorado, priority 2008, dated 2010)

Assays:
mouse splenic B cells = assay: TLR ligand induced ectopic CLIP on mouse splenic B cells in vitro (15G4 anti-CLIP/I-Ab versus B220); format: cell-based; settings: treatment in vitro; figure 12d
Description: Mouse splenocytes or T-depleted splenocytes were red cell depleted using Geys Solution, and cells were counted. For T-depleted B cell preparations, B cells were separated by discontinuous Percoll (Pharmacia LKB Biotechnology, Piscataway, NJ) gradients (13). Those cells layering at the 1.079/1.085 g/ml interface (1.079 < ρ ≤ 1.085) are designated throughout as resting B cells. Cells layering at the BSS/1.066 g/ml interface (ρ ≤ 1.066) are designated as activated. Viable cells from this latter interface were isolated using Lympholyte-M (Cedarlane Laboratories, Ltd., Hornby, Ontario, Canada). Cells from each layer were harvested, washed, and resuspended at 10^7 cells/ml in PBS containing 5% fetal calf serum.
Total splenocytes, from either B6.129, Ii-deficient, or H2M-deficient mice were cultured with LPS for 24, 48, 72, or 96 hours as indicated. Cells were harvested and stained by two-color fluorescence using 15G4-FITC anti-mouse CLIP/I-A^b versus anti-mouse B220 PE. […]
Freshly isolated splenocytes, single cell suspensions of lymph node cells, resting (or activated) B cells, or primed B cells were isolated from B6.129, Ii-deficient, or H2M-deficient mice and cultured in 24 well plates in complete RPMI medium, with or without the appropriate Toll ligand, at 10^6 cells/ml. […] Cells were stained by two-color fluorescence using 15G4-FITC anti-mouse CLIP/I-A^b versus anti-mouse B220 PE. […]

B cell surface CLIP = assay: Effect on B cell surface CLIP (Figure 4); format: cell-based

Question: With `CCOCc1nc2c(N)nc3ccccc3c2n1CC(C)(C)O` [R848, imidazoquinoline resiquimod] as the compound, how does the “exogenous CLIP expression on the activated mouse B cells” value (mouse splenic B cells) read?
Answer: resulted in exogenous CLIP expression

Question: For `OC[C@H]1OC(O)C[C@@H](O)[C@@H]1O` (some centres unmarked) [2-Deoxyglucose, 2-deoxyglucose], which “B cell surface CLIP” value (B cell surface CLIP) is on record?
Answer: affects B cell surface CLIP
